Assay type in all cases: physicochemical
Series [1] can be described thus: Solid solubility test (2 h and 24 h). The conditions noted are these: for solubility at 2 h / solubility at 24 h: thermodynamic from solid; for XRPD measured at 2 h: state of sample / solid fraction; for solubility at 24 h: read-out: Solubility measured at 24 h; for XRPD measured at 24 h: 24 h test, state of sample. As for the experimental part: samples were weighed for each amorphous salt solid (equivalent to 20 mg of free base), and 10 mL of the following solvents were respectively added: 0.1N HCl solution (pH 1.0), 50 mM phosphate buffer (pH 4.5), FeSSIF-V1 (pH 5.0), FaSSIF-V1 (pH 6.5) and SGF (pH 2.0), […] The suspension was then centrifuged at 37° C., the supernatant was measured for solubility by HPLC, and the solid fraction was measured for XRPD. The target solubility was at least 2 mg (based on free base)/mL.

A short description of series [2]: Chemical and physical stability of the salts at the end of the preparation. The text has this: It is crucial for drug development whether the salts obtained as above have chemical and physical stability at the end of the preparation. The chemical and physical stability of the salts at the end of the preparation includes: […]
Series [3] can be described thus: Solid storage stability test. Conditions: for Original morphology / Original purity: original solid before storage; for chemical and physical stability after storage (summary): solid/25° C./60% RH/open/1 week and/or solid/60° C./closed container/1 week. As for the experimental part:
Each amorphous salt solid was weighed (two 2 mg samples were weighed for purity testing after solid storage stability study, and one 10 mg sample was weighed for XRPD testing after solid storage stability study) and placed in a glass vial. In a 25° C./60% RH solid storage stability test, the amorphous salt solid was placed in a 25° C./60% RH constant temperature and humidity chamber, and placed in the dark for 1 week (i.e. “solid/25° C./60% RH/open/1 week”), and in a 60° C. solid storage stability test, the amorphous salt solid was sealed in an oven at 60° C. and heated for 1 week in the dark (i.e. “solid/60° C./closed container/l week”). Then the sample was taken out for purity testing, crystal form detection and appearance observation, respectively.

The mark [4] stands for this setting: FaSSIF-V1 (pH 6.5) (Test ES4, partly printed ES1).
Setting [5] is: FaSSIF-V1 (pH 6.5) (Test ES4, partly printed ES1), 37° C., based on free base.
Setting [6] is: Test ES1: 0.1N HCl solution (pH 1.0).
The mark [7] stands for this setting: Test ES1: 0.1N HCl solution (pH 1.0), 37° C., based on free base.
The mark [8] stands for this setting: Test ES2: 50 mM phosphate buffer (pH 4.5).
Setting [9] is: Test ES5: SGF (pH 2.0), 37° C., based on free base.
[10] abbreviates: Test BS1: solid/25° C./60% RH/open/1 week.
Setting [11] is: solid/60° C./closed container/1 week (Test BS1).
[12] abbreviates: listed as 1 eq. hydrochloride salt.
The mark [13] stands for this setting: listed as amorphous 1 eq. hydrochloride salt.

From patent publication US20230234941A1, “Salts of Compound and Pharmaceutical Compositions Containing the Same” (Shenzhen Forward Pharmaceuticals Co., Limited., priority 2020, published 2023) come the findings set out here.

The structures appear in SMILES notation. Where a name gives a salt, the structure may show the parent alone. Read-outs that look alike come from different tables or passages of the source.

For orientation: solubility means how much of the substance goes into solution per volume.

`C=CC(=O)Nc1cc(Nc2ncnc(-c3cn(C)c4ccccc34)n2)c(OC)cc1N(C)CCN(C)C` [Example 1]: the solubility at 2 h in series [1] (50 mM phosphate buffer, 37 °C, pH 4.5, aqueous buffer, Test ES2: 50 mM phosphate buffer (pH 4.5), 37° C., based on free base, read-out: Solubility measured at 2 h) is greater than 2000 µg/mL; in series [1] (FeSSIF-V1, 37 °C, pH 5, fessif, Test ES3: FeSSIF-V1 (pH 5.0), 37° C., based on free base, read-out: Solubility measured at 2 h), greater than 2000 µg/mL. Besides, the “pH measured at 2 h” value in series [1] (setting [4]) is listed as “(6.8)”; in series [1] (setting [6]), “(0.8)”; in series [1] (setting [8]) it was “(4.6)”; in series [1] (Test ES3: FeSSIF-V1 (pH 5.0)), “(4.9)”; in series [1] (Test ES5: SGF (pH 2.0)), “(2.4)”. Moreover, the “Solubility measured at 2 h” value in series [1] (setting [5]), in series [1] (setting [7]) and in series [1] (setting [9]) was greater than 2000 µg/mL throughout. The “XRPD measured at 2 h” value in series [1] (setting [4]), in series [1] (setting [6]), in series [1] (setting [8]), in series [1] (Test ES3: FeSSIF-V1 (pH 5.0)) and in series [1] (Test ES5: SGF (pH 2.0)) was “clear solution” each time. The solubility at 24 h in series [1] (FaSSIF-V1, 37 °C, pH 6.5, fassif, Test ES4: FaSSIF-V1 (pH 6.5)) is greater than 2000 µg/mL; in series [1] (FeSSIF-V1, 37 °C, pH 5, fessif, Test ES3: FeSSIF-V1 (pH 5.0)), greater than 2000 µg/mL. For the same compound, the “Solubility measured at 24 h” value in series [1] (Test ES3: FeSSIF-V1 (pH 5.0)) and in series [1] (Test ES4: FaSSIF-V1 (pH 6.5)) was greater than 2000 µg/mL each time. The “pH measured at 24 h” value in series [1] (Test ES3: FeSSIF-V1 (pH 5.0)) is reported as “(5.0)”; in series [1] (Test ES4: FaSSIF-V1 (pH 6.5)), “(6.8)”. The “XRPD measured at 24 h” value in series [1] (Test ES3: FeSSIF-V1 (pH 5.0)) and in series [1] (Test ES4: FaSSIF-V1 (pH 6.5)) was “clear solution” in each case. The “chemical and physical stability at the end of the preparation” value in series [2] (listed as amorphous free base) is “chemically and physically stable”. Further, the Purity in series [3] (setting [10]) was 99.6%; in series [3] (setting [11]) it was 99.9%. The Original morphology result in series [3] is recorded as “amorphous”. This compound also came in with an Original purity in series [3] of 99.9%. In addition, the “physical and chemical stability under storage (in words)” value in series [3] (solid/25° C./60% RH/open/1 week, listed as amorphous free base) was “good physical and chemical stability”; in series [3] (solid/60° C./closed container/1 week, listed as amorphous free base), “transformed from amorphous to a moderate crystallinity”.

Regarding `C=CC(=O)Nc1cc(Nc2ncnc(-c3cn(C)c4ccccc34)n2)c(OC)cc1N(C)CCN(C)C` [Example 2], the solubility at 2 h in series [1] (37 °C, 2 h solid solubility test, all five solvents, read-out: solubility in all solvents tested) was greater than 2000 µg/mL. Moreover, the “pH measured at 2 h” value was “(6.5)” in series [1] (setting [4]); “(0.7)” in series [1] (setting [6]); “(4.5)” in series [1] (setting [8]); “(4.8)” in series [1] (Test ES3: FeSSIF-V1 (pH 5.0)); “(2.0)” in series [1] (Test ES5: SGF (pH 2.0)). For the same compound, the “Solubility measured at 2 h” value in series [1] (setting [5]) was greater than 2000 µg/mL; in series [1] (setting [7]) it was greater than 2000 µg/mL; in series [1] (Test ES2: 50 mM phosphate buffer (pH 4.5), 37° C., based on free base) it was greater than 2000 µg/mL; in series [1] (Test ES3: FeSSIF-V1 (pH 5.0), 37° C., based on free base), greater than 2000 µg/mL; in series [1] (setting [9]) it was greater than 2000 µg/mL. Moreover, the “XRPD measured at 2 h” value in series [1] (setting [4]), in series [1] (setting [6]), in series [1] (setting [8]), in series [1] (Test ES3: FeSSIF-V1 (pH 5.0)) and in series [1] (Test ES5: SGF (pH 2.0)) was “clear solution” throughout. Further, the “chemical and physical stability at the end of the preparation” value is “chemically and physically stable” in series [2] (setting [12]); “chemically and physically stable” in series [2] (setting [13]). Besides, the Purity was determined as 99.9% in series [3] (setting [10]) and 98.2% in series [3] (setting [11]). The Original morphology entry in series [3] was “amorphous”. In series [3], this compound gave an Original purity of 99.9%. The “chemical and physical stability after storage (summary)” value in series [3] (setting [12]) and in series [3] (setting [13]) was “chemically unstable” in each case. Besides, in series [3] (solid/25° C./60% RH/open/1 week, listed as amorphous 1 eq. hydrochloride salt), the “physical and chemical stability under storage (in words)” value was “good physical and chemical stability”. Also, the decrease in purity result in series [3] (solid/60° C./closed container/1 week) is listed as “about 2%”.

Turning to `C=CC(=O)Nc1cc(Nc2ncnc(-c3cn(C)c4ccccc34)n2)c(OC)cc1N(C)CCN(C)C` [Example 11], the “chemical and physical stability at the end of the preparation” value in series [2] (listed as amorphous nitrate salt) was “at least chemically unstable”; in series [2] (listed as nitrate salt), “chemically unstable”.

Take `C=CC(=O)Nc1cc(Nc2ncnc(-c3cn(C)c4ccccc34)n2)c(OC)cc1N(C)CCN(C)C` [Example 12]: the “chemical and physical stability at the end of the preparation” value is reported as “chemically stable at the end of the preparation, but was physically unstable due to a certain hygroscopicity” in series [2] (listed as amorphous sulfate salt) and “physically unstable” in series [2] (listed as sulfate salt).

As to `C=CC(=O)Nc1cc(Nc2ncnc(-c3cn(C)c4ccccc34)n2)c(OC)cc1N(C)CCN(C)C` [Example 13], the “chemical and physical stability at the end of the preparation” value in series [2] (listed as 2 eq. p-tosylate salt) is “physically unstable”; in series [2] (listed as amorphous 2 eq. p-tosylate salt), “chemically stable and reasonable in terms of the base:acid stoichiometric ratio at the end of the preparation, but was physically unstable due to caking and fusion to a glassy state upon short exposure to environmental conditions”.

`C=CC(=O)Nc1cc(Nc2ncnc(-c3cn(C)c4ccccc34)n2)c(OC)cc1N(C)CCN(C)C` [Example 14]: the “chemical and physical stability at the end of the preparation” value in series [2] (listed as Y11526-25-FD13-1,4-dioxane) was “chemically and physically stable”.

Turning to `C=CC(=O)Nc1cc(Nc2ncnc(-c3cn(C)c4ccccc34)n2)c(OC)cc1N(C)CCN(C)C` [Example 15], in series [2] (listed as Y11526-25-FD12-1,4-dioxane), the “chemical and physical stability at the end of the preparation” value was “chemically and physically stable”.

For the compound `C=CC(=O)Nc1cc(Nc2ncnc(-c3cn(C)c4ccccc34)n2)c(OC)cc1N(C)CCN(C)C` [Example 16], the “chemical and physical stability at the end of the preparation” value in series [2] (listed as L-malate salt) is “chemically unstable”; in series [2] (listed as amorphous L-malate salt) it was “at least chemically unstable”.

For the compound `C=CC(=O)Nc1cc(Nc2ncnc(-c3cn(C)c4ccccc34)n2)c(OC)cc1N(C)CCN(C)C` [Example 17], the results for the “chemical and physical stability at the end of the preparation” value in series [2] (listed as 1 eq. citrate salt) and in series [2] (listed as amorphous 1 eq. citrate salt) were “chemically unstable” and “at least chemically unstable”, respectively.

On to `C=CC(=O)Nc1cc(Nc2ncnc(-c3cn(C)c4ccccc34)n2)c(OC)cc1N(C)CCN(C)C` [Example 18], for which the “chemical and physical stability at the end of the preparation” value is reported as “chemically unstable” in series [2] (listed as 1 eq. L-tartrate), “chemically unstable” in series [2] (listed as amorphous 1 eq. L-tartrate) and “at least chemically unstable” in series [2] (listed as amorphous 1 eq. L-tartrate salt).

Turning to `C=CC(=O)Nc1cc(Nc2ncnc(-c3cn(C)c4ccccc34)n2)c(OC)cc1N(C)CCN(C)C` [sulfosalicylate salt], the “chemical and physical stability at the end of the preparation” value is “chemically and physically stable” in series [2]; “chemically and physically stable” in series [2] (listed as amorphous sulfosalicylate salt).
